# Source: article PMC12308805, “Ultrahigh-Throughput Virtual Screening Strategies against PPI Targets: A Case Study of STAT Inhibitors” (Journal of Chemical Information and Modeling, 2025)
# Values joined by “and” are separate entries in the source; they are usually repeats but may differ in a detail not shown here. Identical values can stand only once. Square brackets hold non-standard residues; d marks the D form. Peptide text beside a SMILES is read from it. * marks the point of attachment. pY = N[C@@H](Cc1ccc(OP(=O)(O)O)cc1)C(=O)O; X1 = O=C(c1cc2cc(OP(=O)(O)O)ccc2[nH]1)*; Propionyl = CCC(=O)*
# Test system: STAT3
# Assay: not given
# Conditions: cited from earlier work
row,SMILES,Type (known STAT3 active)
1,CC(C)C[C@H](NC(=O)/C=C/c1ccc(OP(=O)(O)O)cc1)C(=O)N1CCC[C@H]1C(=O)N[C@@H](CC(N)=O)C(=O)NCc1ccccc1 [CHEMBL573901],Active
2,CCC(=O)N[C@@H](Cc1ccc(OP(=O)(O)O)cc1)C(=O)N[C@@H](CC(C)C)C(=O)N1CCC[C@H]1C(=O)N[C@@H](CCC(N)=O)C(=O)N[C@H](C(N)=O)[C@@H](C)O [CHEMBL197580] (Propionyl-[pY]LPQT-NH2),Active
3,CC(C)C[C@H](NC(=O)c1cc2cc(OP(=O)(O)O)ccc2[nH]1)C(=O)N1CCC[C@H]1C(=O)N[C@@H](CCC(N)=O)C(=O)N[C@H](C(N)=O)[C@@H](C)O [CHEMBL485921] (X1-LPQT-NH2),Active

# Same assay, conditions: sheet 6QHD_actives_decoys, retrospective screening set for STAT3 SH2 domain (PDB 6QHD); decoys are presumed inactives, not tested; ref DUD-E; cited from earlier work
row,SMILES,Type
1,N[C@@H](CCCC[n+]1cc(CC[C@H](N)C(=O)O)cc(CC[C@H](N)C(=O)O)c1CCC[C@H](N)C(=O)O)C(=O)[O-] [Decoy841],Inactive (Decoy)
2,CC[C@@]1(c2ccccc2)NC(=O)N(CC(=O)Nc2ccc(S(=O)(=O)Nc3ncccn3)cc2)C1=O [Decoy743],Inactive (Decoy)
3,CCCCNC(=O)[C@@H](c1cc([N+](=O)[O-])ccc1Cl)N(Cc1ccc(C)o1)C(=O)c1ccccc1O [Decoy813],Inactive (Decoy)
4,Nc1ncnc2c1ncn2[C@@H]1O[C@H](CO[P@](=O)(O[C@H](CO)[C@@H](O)[C@H](O)[C@@H](O)C=O)OP(=O)(O)O)[C@@H](O)[C@H]1O [Decoy946],Inactive (Decoy)
5,CCOc1ccc(NC(=O)CSC2=C(C#N)[C@@H](c3ccco3)C(C(=O)Nc3cc(OC)ccc3OC)=C(C)N2)cc1 [Decoy933],Inactive (Decoy)
6,COc1cc(S(=O)(=O)N2CCCCC2)ccc1N/C=C1\C(=O)NC(=O)N(c2ccc(C)cc2)C1=O [Decoy837],Inactive (Decoy)
7,CCN(CC)S(=O)(=O)c1ccc(OC)c(NC(=O)COc2cc(C)ccc2C(N)=O)c1 [Decoy867],Inactive (Decoy)
8,CCN(CC)c1ccc(/C=N/Nc2nnc(SCC(=O)Nc3ccc(OC)cc3OC)n2N)c(O)c1 [Decoy877],Inactive (Decoy)
9,Nc1nnc(S(=O)(=O)N[C@]2(C(F)(F)F)C(=O)N=C3C2=C(O)NC(=O)N3Cc2cccnc2)s1 [Decoy794],Inactive (Decoy)
10,C[C@@H](NC(=O)[C@@H](N)Cc1ccc(O)cc1)C(=O)NCC(=O)N[C@@H](Cc1ccccc1)C(=O)NNC(=O)[C@H](Cc1ccccc1)NC(=O)CNC(=O)[C@@H](C)NC(=O)[C@@H](N)Cc1ccc(O)cc1 [Decoy945],Inactive (Decoy)
11,Cc1ccc(C)c(NC(=O)CCC(=O)N/N=C(/S)NC(=O)c2ccccc2[N+](=O)[O-])c1 [Decoy948],Inactive (Decoy)
12,CC(=O)SCCNC(=O)CCNC(=O)[C@@H](O)C(C)(C)CO[P@](=O)(O)O[P@](=O)(O)OC[C@H]1O[C@@H](n2cnc3c(N)ncnc32)[C@@H](O)[C@H]1OP(=O)(O)O [Decoy854],Inactive (Decoy)
13,O=C(O)C[C@H](NS(=O)(=O)c1cc(S(=O)(=O)N[C@@H](CC(=O)O)c2ccccc2)c2cccc3c2c1NC3=O)c1ccccc1 [Decoy893],Inactive (Decoy)

# Same assay, conditions: sheet 6QHD_actives_decoys; retrospective screening set for STAT3 SH2 domain (PDB 6QHD); […]; ref DUD-E; cited from earlier work
row,SMILES,Type
1,COc1ccccc1NS(=O)(=O)c1cccc(C(=O)NNC(=O)c2cc3ccccc3[nH]c2=O)c1 [Decoy693],Inactive (Decoy)
2,O=C(CCCN1CCC(O[C@@H]2O[C@H](C(=O)O)[C@@H](O)[C@H](O)[C@H]2O)(c2ccc(Cl)cc2)CC1)c1ccc(F)cc1 [Decoy692],Inactive (Decoy)

# Same assay, conditions: sheet 6QHD_actives_decoys; retrospective screening set for STAT3 SH2 domain (PDB 6QHD); decoys generated with DUD-E and presumed inactive, not tested; ref DUD-E; cited from earlier work
row,SMILES,Type
1,COc1ccc(NC(=O)C2=C(C)NC(SCC(=O)Nc3cccc(OC)c3)=C(C#N)[C@@H]2c2ccco2)cc1 [Decoy357],Inactive (Decoy)
2,CCOC(=O)Cn1nnnc1[C@@H](CC)N(Cc1ccc(F)cc1)Cc1cc2cc3c(cc2[nH]c1=O)OCCO3 [Decoy585],Inactive (Decoy)
3,COc1cc(O)cc(C)c1C(=O)O[C@H]1[C@H](O)[C@@H](O)[C@@H](OC2[C@@H](O)[C@H](O)C(O)[C@H](O)[C@@H]2O)O[C@@H]1CO (some centres unmarked) [Decoy641],Inactive (Decoy)
4,CCN(CC)CCCNC(=S)N(CCN1CCOCC1)Cc1cc2cc3c(cc2[nH]c1=O)OCCO3 [Decoy416],Inactive (Decoy)
5,CCSc1nnc(/N=C(\O)CSc2n[nH]c(N/N=C/c3cn(C)nc3C)n2)s1 [Decoy414],Inactive (Decoy)
6,CCOC(=O)c1c(NC(=O)CSc2nnc(CNC(=O)c3ccco3)n2C)sc2c1CCC2 [Decoy722],Inactive (Decoy)
7,O=C(O)CN(CC(=O)O)[C@@H](CCCCNC(=S)Nc1ccc(-c2c3ccc(=O)cc-3oc3cc(O)ccc23)c(C(=O)O)c1)C(=O)O [Decoy515],Inactive (Decoy)
8,C[N+]1=C(/C=C/C=C2/N(CCCCC(=O)NCCOCCOCCNCCO[C@H]3O[C@@H](CO)[C@@H](O)[C@H](O)[C@@H]3O)c3ccccc3C2(C)C)C(C)(C)c2ccccc21 [Decoy588],Inactive (Decoy)
9,COc1cc(O)c(C(C)=O)c(O[C@@H]2O[C@@H](CO[C@H]3O[C@@H](CO)[C@@H](O)[C@@H](O)[C@H]3O)[C@@H](O)[C@@H](O)[C@H]2O)c1 [Decoy717],Inactive (Decoy)
10,CCOCCOc1ccccc1C(=O)N/C(S)=N\NC(=O)COc1ccc([N+](=O)[O-])cc1 [Decoy631],Inactive (Decoy)
11,CCSc1ccccc1NC(=O)CSc1n[nH]c(N/N=C/c2cc([N+](=O)[O-])ccc2O)n1 [Decoy446],Inactive (Decoy)
12,CCCCn1c(N)c(N(CCOC)C(=O)CSc2nc3ccccc3s2)c(=O)[nH]c1=O [Decoy723],Inactive (Decoy)
13,COC(=O)c1ccc(NC(=O)CSc2nc(N)c(NC(=O)c3ccc(Br)o3)c(=O)[nH]2)cc1 [Decoy351],Inactive (Decoy)
14,CC[C@H]1OC(=O)[C@H](C)[C@@H](O[C@@H]2C[C@@](C)(OC)[C@H](O)[C@H](C)O2)[C@H](C)[C@H](O[C@H]2O[C@@H](C)C[C@@H](N(C)C)[C@H]2O)[C@](C)(O)C[C@@H](C)/C(=N\OCOCCOC)[C@H](C)[C@@H](O)[C@]1(C)O [Decoy581],Inactive (Decoy)
15,COCCN(C(=O)COc1cc(Cl)c(Cl)cc1Cl)c1c(N)n(CC(C)C)c(=O)[nH]c1=O [Decoy712],Inactive (Decoy)
16,CCCCn1nc(NC(=O)c2cc(OCC)c(OCC)c(OCC)c2)c2cc3cc(C)ccc3nc21 [Decoy415],Inactive (Decoy)
17,C=CCSc1nnc(/N=C(\O)CSc2nnc(N/N=C/c3c(O)ccc4ccccc34)n2N)s1 [Decoy343],Inactive (Decoy)
18,O=C(NCCCN1CCOCC1)C(C(=O)NCCCN1CCOCC1)c1ncc(C(F)(F)F)cc1Cl [Decoy377],Inactive (Decoy)
19,CCCCOc1ccc([C@@H]2C(C(=O)c3nc4c(C)cccn4c3C)=C(O)C(=O)N2CCN(C)C)cc1OCC [Decoy578],Inactive (Decoy)
20,CCOC(=O)c1ccc(/N=C2\S[C@@H](CC(=O)Nc3ccc(C(=O)OCC)cc3)C(=O)N2CCc2ccc(Cl)cc2)cc1 [Decoy552],Inactive (Decoy)
21,CC1(C)NC(=O)N(C[C@@H](O)COc2ccc(-c3ccc(OC[C@H](O)CN4C(=O)NC(C)(C)C4=O)cc3)cc2)C1=O [Decoy539],Inactive (Decoy)

# Molecular target: T1, STAT3 (127–770) SH2 domain (Homo sapiens, UniProt P40763)
# T1 construct: For STAT3 (127–770), the final concentration of the protein was 200 nM; made in house
# Assay: Fluorescence polarization assay (FP-assay), STAT3 SH2 domain
# Assay type: binding
# Set-up: key to identified as active in FP-assay: A compound was identified as active, if it had a mean IC50 value under 100 μM
# Conditions: not given
# Description: The respective protocols for the expression and purification of the STAT3 SH2 and STAT5b SH2 domains were published in our recent works. Fluorescence polarization assays (FP-assays) were performed on a Molecular Devices SpectraMax iD5Multimode Microplate Reader (San Jose, CA, USA) using Greiner black 384-well flat-bottom nonbinding microplates with 40 μL final well volumes. The fluorescent peptides (5-FAM-G(pTyr)-LPQTV-NH2 and 5-FAM-G(pTyr)-LVLDKW-NH2, purchased from GenScript Biotech Ltd., Piscataway, NJ, USA), as well as the proteins, were diluted with a buffer containing 50 mM NaCl, 10 mM HEPES (4-(2-hydroxyethyl)-1-piperazineethanesulfonic acid), 1 mM EDTA (ethylenediaminetetraacetic acid), 2 mM DTT (dithiothreitol), and 0.1% Triton X-100, pH 7.5. For STAT3 (127–770), the final concentration of the protein was 200 nM, and the fluorescent peptide (5-FAM-G(pTyr)-LPQTV-NH2) was added at a final concentration of 5 nM; for STAT5b (136–703), the final concentration of the protein was 500 nM, and the fluorescent peptide (5-FAM-G(pTyr)-LVLDKW-NH2) was added at a final concentration of 10 nM. The wells were treated with varying concentrations of inhibitors (1250 to 0.11 μM final concentrations). The final DMSO content was 2.5%. After mixing, the protein and inhibitors were incubated at room temperature for 30 min, then the fluorescent peptide was added, and the plate was incubated for another 20 min prior to the fluorescence readout (extinction wavelength: 475 nm, emission wavelength: 520 nm). The measurements were carried out in at least three biological replicates. Fluorescence polarization was calculated from the perpendicular and parallel fluorescence intensities and then plotted against concentration. The IC50 values were determined after fitting quadratic dose–response curves on the data points in GraphPad Prism 8.0.1. […] All plotted curves and data points for the hit compounds are included in Section 2 of the Supporting Information.
# T1 sequence (P40763 127-770): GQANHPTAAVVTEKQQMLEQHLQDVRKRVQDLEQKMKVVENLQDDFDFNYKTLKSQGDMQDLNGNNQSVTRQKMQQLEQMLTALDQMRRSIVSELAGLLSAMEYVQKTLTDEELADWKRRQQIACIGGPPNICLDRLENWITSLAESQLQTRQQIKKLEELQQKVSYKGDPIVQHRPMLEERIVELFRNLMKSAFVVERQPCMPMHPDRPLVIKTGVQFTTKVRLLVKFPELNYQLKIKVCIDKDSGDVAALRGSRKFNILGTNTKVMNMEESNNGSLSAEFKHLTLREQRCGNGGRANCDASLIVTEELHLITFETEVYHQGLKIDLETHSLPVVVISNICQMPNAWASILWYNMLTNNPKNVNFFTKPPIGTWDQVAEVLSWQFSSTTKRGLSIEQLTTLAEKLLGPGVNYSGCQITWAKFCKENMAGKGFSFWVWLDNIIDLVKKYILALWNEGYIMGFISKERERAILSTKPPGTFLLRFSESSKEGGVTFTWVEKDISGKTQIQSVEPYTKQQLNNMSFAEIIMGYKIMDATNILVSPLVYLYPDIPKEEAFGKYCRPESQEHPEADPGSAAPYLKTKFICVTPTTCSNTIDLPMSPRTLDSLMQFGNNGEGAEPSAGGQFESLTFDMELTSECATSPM
SMILES,identified as weakly binding in FP-assay,identified as active in FP-assay
"NC(=O)C1CCN(C(=O)c2ccccc2NC(=O)c2cccc(NC(=O)CCn3ccnc3)c2)CC1 [S3_E3, NC(=O)C1CCN(CC1)C(=O)c2ccccc2NC(=O)c3cccc(c3)NC(=O)CCn4cc[n]c4]",weakly binding (A weakly binding compound (mean IC50 value higher than 100 μM)),–
"Nc1ccc(-n2ccc(C(=O)O)n2)nc1 [S3_B12, Nc1ccc(nc1)n1ccc(n1)C(=O)O]",weakly binding (A weakly binding compound (mean IC50 value higher than 100 μM)),–
"NC(=O)CSc1ccccc1C(=O)NC[C@H](O)COc1ccc2c(c1)OCO2 [S3_E4, NC(=O)CSc1ccccc1C(=O)NC[C@H](O)COc(cc2)cc(c23)OCO3]",–,active
"O=C(O)c1[nH]c2ccccc2c1C(=O)O [S3_M5, [OH]C(=O)c([nH]1)c(C(=O)[OH])c(c12)cccc2]",–,active
"O=C(O)CCCn1ccc2c(nnc3ccnn32)c1=O [S3_M13, n1ccc(nn2)n1c(c23)ccn(c3=O)CCCC([OH])=O]",–,active

# Same assay, conditions: FP-assay, mean IC50, at least three biological replicates
row,SMILES,IC50
1,"NC(=O)C1CCN(C(=O)c2ccccc2NC(=O)c2cccc(NC(=O)CCn3ccnc3)c2)CC1 [S3_E3, NC(=O)C1CCN(CC1)C(=O)c2ccccc2NC(=O)c3cccc(c3)NC(=O)CCn4cc[n]c4]",472 ± 112 µM
2,"Cc1cc(=O)c(C(=O)O)c(O)[nH]1 [S3_M16, [OH]C(=O)c1c(=O)cc(C)[nH]c1O]",111 ± 64.7 µM
3,"Nc1ccc(-n2ccc(C(=O)O)n2)nc1 [S3_B12, Nc1ccc(nc1)n1ccc(n1)C(=O)O]",> 100 µM and 104 µM
4,"NC(=O)CSc1ccccc1C(=O)NC[C@H](O)COc1ccc2c(c1)OCO2 [S3_E4, NC(=O)CSc1ccccc1C(=O)NC[C@H](O)COc(cc2)cc(c23)OCO3]",13.6 ± 6.1 µM
5,"O=C(O)c1[nH]c2ccccc2c1C(=O)O [S3_M5, [OH]C(=O)c([nH]1)c(C(=O)[OH])c(c12)cccc2]",53.2 ± 46.9 µM
6,"O=C(O)CCCn1ccc2c(nnc3ccnn32)c1=O [S3_M13, n1ccc(nn2)n1c(c23)ccn(c3=O)CCCC([OH])=O]",64.4 ± 17.7 µM
